The values that follow come from US8916516B2, “Treatment of fungal and/or protist infections” (AI2 Limited, priority 2005, dated 2014).

Type in all cases: cell-based
One assay has as its system fungi. The note with it: overall statement on the fungi tested. As for the experimental part:
(§1) Four compounds were supplied as an aqueous solution, 400 μM. Serial dilutions of each test peptide were prepared in addition to a control, which was a conventional antifungal drug, Amphoteracin B. Amphteracin B is obtained from Invitrogen or Melford laboratories.
(§2) Initial testing of the peptides was carried out against the following organisms: • 1) Aspergillus fumigatus AF293 (culture collection strain NCPF7367) • 2) Candida albicans 6862 (clinical isolate) • 3) Fusarium spp 5889 (clinical isolate) • 4) Fusarium spp 6507 (clinical isolate) • 5) Aspergillus terreus (clinical isolate) • 6) Aspergillus niger (clinical isolate) • 7) Staphylococcus aureus (Oxford strain, which is a standard reference strain used in MIC testing)
The bacterium S. aureus was tested with each of the peptides as a control. […] RPMI is standard Roswell Park Memorial Institute medium (Morton, H. C., (1970) A survey of Commercially Available Tissue Culture Media. In Vitro 6: 89-108).
(§3) Candida and S. aureus plates were read after 24 hrs incubation and the Aspergillus and Fusarium strains read after 48 hrs. The MIC was taken as the lowest drug or compound concentration that caused >80% reduction in growth compared with a drug free control.
(§4) The methods used to determine, the IC50 values for each peptide were as described in the Example 1.

In the next assay the test system is Fusarium solani 1 (FS1). The assay can be described thus: Antifungal MIC (Example 4). Particulars: Fusarium solani 1; peptides; Tables 4 and 5. On the procedure: (§5) The inventor expanded the work conducted in Example 1 by testing an expanded library of peptides derived from either apolipoprotein B or apolipoprotein E in order to further evaluate polypeptides in accordance with the invention. These experiments were conducted using the following fungal species:
(§6) FS1-FS4 were obtained from Bristol PHLS (British Public Health Laboratory Service UK). Aspergillus fumigatus 293 is publicly available as culture collection strain NCPF7367 (National Collection of Pathogenic Fungi Public Health Laboratory, Mycological Reference Laboratory Myrtle Road, Kingsdown, Bristol BS2 8EL) The Candida albicans was a clinical isolate obtained by standard means.
as §4

In another assay the test system is Fusarium solani 2 (FS2). Briefly: Antifungal MIC (Example 4). Particulars: Fusarium solani 2; peptides; Tables 4 and 5. As for the experimental part:
as §5, §6, §4

Assay [1] relates to Candida albicans (CA), clinical isolate. The assay can be described thus: Antifungal MIC (Example 4). Particulars: peptides, Tables 4 and 5. As for the experimental part:
as §5, §6, §4

Assay [2] has as its system Aspergillus fumigatus AF293 (NCPF7367). The assay can be described thus: microbe, parasite or virus in culture. Particulars: Aspergillus fumigatus 293; peptides; Tables 4 and 5. On the procedure: as §1, §2
The bacterium S. aureus was tested with each of the peptides as a control. A suspension of each organism in an appropriate growth medium was added to the, dilutions of the peptides in order to give concentration ranges of 40 μM to 0.04 μM for each of the peptides, and 64-0.025 μg/ml for amphotericin B. Fungal strains were tested in RPMI media. RPMI is standard Roswell Park Memorial Institute medium (Morton, H. C., (1970) A survey of Commercially Available Tissue Culture Media. In Vitro 6: 89-108).
The final inoculum for S. aureus was 5×10^4 cfu/ml. The final inoculum for C. albicans was 2×10^3 cfu/ml. The final inoculum for Aspergillus fumigatus and for Fusarium spp was 2×10^4 cfu/ml.
as §3
Aspergillus fumigatus 293 (AF); and
FS1-FS4 were obtained from Bristol PHLS (British Public Health Laboratory Service UK). Aspergillus fumigatus 293 is publicly available as culture collection strain NCPF7367 (National Collection of Pathogenic Fungi Public Health Laboratory, Mycological Reference Laboratory Myrtle Road, Kingsdown, Bristol BS2 8EL) The Candida albicans was a clinical isolate obtained by standard means. […]

In the next assay the test system is Fusarium solani 3 (FS3). Briefly: Antifungal MIC (Example 4). Particulars: Fusarium solani 3; peptides; Tables 4 and 5. As for the experimental part: as §5, §6, §4
The test system of another assay is Fusarium solani 4 (FS4). Briefly: Antifungal MIC (Example 4). The note with it: Fusarium solani 4; peptides; Tables 4 and 5. As for the experimental part:
as §5, §6, §4

Assay [3] relates to Acanthamoeba polyphaga (trophozoites), Ros strain. The assay can be described thus: Microtitre plate assay against Acanthamoeba trophozoites (Example 2). Particulars: lowest concentration killing the trophozoite challenge. From the text: The test compounds were screened against the trophozoites of clinical isolates of Acanthamoeba spp. using a microtitre plate assay procedure. The organisms were Acanthamoeba polyphaga. (see for details on the strain and methodology used: Hughes, R. & Kilvington, S. (2001). A comparison of hydrogen peroxide contact lens disinfection systems and solutions against Acanthamoeba polyphaga. Antimicrob. Agents Chemother. 45: 2038-2043.) Acanthamoeba polyphaga Ros strain was used throughout the study. The strain was originally isolated from an unpublished case of acanthamoeba keratitis in the United Kingdom in 1994.
Use of the microliter plate assay enabled the determination of the minimum amoebacidal trophozoite concentration (MATC), which is the minimum amoebacidal trophozoite concentration (μg/ml)=lowest concentration killing the trophozoite challenge […] and also the minimum inhibitory trophozoite concentration (MITC), which is the minimum inhibitory trophozoite concentration (μg/ml)=lowest concentration stopping the trophozoites from dividing or killing about 50% of population. The values may then be used to select drug concentrations for use in time-kill experiments to study the kinetics of Acanthamoeba killing.

No end group written: not given here. Some results are limits rather than exact numbers.

In the case of “CRKCRKRCCCRKCRKRCC (Artficial polypeptide designated MU 12) [MU_12]”, the “antifungal activity (in words)” value in the assay on fungi is listed as “particularly effective antifungal peptides”. For the same substance, the “MIC values (>80% reduction) FS1” value against Fusarium solani 1 (FS1) came to 2.5 µM. Moreover, in the assay on Fusarium solani 2 (FS2), the “MIC values (>80% reduction) FS2” value stood at 5 µM. For the same substance, the “MIC values (>80% reduction) CA” value in assay [1] was more than 40 µM. Moreover, the “MIC values (>80% reduction) AF” value in assay [2] was 40 µM. For the same substance, the “MIC values (>80% reduction) FS3” value with Fusarium solani 3 (FS3) amounted to 10 µM. Also, in the assay with Fusarium solani 4 (FS4), the “MIC values (>80% reduction) FS4” value was 5 µM.

For the substance “FRKFRKRFFFRKFRKRFF (Artficial polypeptide designated MU7) [MU_7]”, the “MATC = minimum amoebacidal trophozoite concentration” value in assay [3] came to 93.1 µM. Besides, the “antifungal activity (in words)” value with fungi was “particularly effective antifungal peptides”. The “MIC values (>80% reduction) FS1” value with Fusarium solani 1 (FS1) amounted to 5 µM. Also, the “MIC values (>80% reduction) FS2” value with Fusarium solani 2 (FS2) was 2.5 µM. Besides, the “MIC values (>80% reduction) CA” value in assay [1] is more than 40 µM. Besides, the “MIC values (>80% reduction) AF” value in assay [2] was more than 40 µM. Also, the “MIC values (>80% reduction) FS3” value in the assay with Fusarium solani 3 (FS3) was found to be 5 µM. Moreover, the “MIC values (>80% reduction) FS4” value in the assay with Fusarium solani 4 (FS4) is 20 µM.

As to “KRKKRKRKKKRKKRKRKK (Artificial polypeptide designated MU 18) [MU_18, 85]”, in the assay on fungi, the “antifungal activity (in words)” value is “particularly effective antifungal peptides”. In addition, in the assay with Fusarium solani 1 (FS1), the “MIC values (>80% reduction) FS1” value was determined as 2.5 µM. Moreover, the “MIC values (>80% reduction) FS2” value against Fusarium solani 2 (FS2) worked out at 10 µM. In addition, in assay [1], the “MIC values (>80% reduction) CA” value was more than 40 µM. For the same substance, the “MIC values (>80% reduction) AF” value in assay [2] is more than 40 µM. In addition, the “MIC values (>80% reduction) FS3” value with Fusarium solani 3 (FS3) was 2.5 µM. In addition, in the assay with Fusarium solani 4 (FS4), the “MIC values (>80% reduction) FS4” value is more than 40 µM.

As for “RRKRRKRRRRRKRRKRRR (Artificial polypeptide designated MU 16) [MU_16]”, the “antifungal activity (in words)” value with fungi is “particularly effective antifungal peptides”. In the assay with Fusarium solani 1 (FS1), the “MIC values (>80% reduction) FS1” value was determined as 1.25 µM. Moreover, in the assay on Fusarium solani 2 (FS2), the “MIC values (>80% reduction) FS2” value worked out at 1.25 µM. Also, the “MIC values (>80% reduction) CA” value in assay [1] turned out to be 10 µM. Moreover, the “MIC values (>80% reduction) AF” value in assay [2] is 40 µM. In addition, the “MIC values (>80% reduction) FS3” value in the assay on Fusarium solani 3 (FS3) was found to be 1.25 µM. In addition, the “MIC values (>80% reduction) FS4” value with Fusarium solani 4 (FS4) amounted to 2.5 µM.

In the case of “RRWRKRWRKWRWRKRWRK (Artificial polypeptide designated MU 28) [MU_28, 42]”, the “antifungal activity (in words)” value in the assay with fungi was “good antifungal activity”. In the assay with Fusarium solani 1 (FS1), the “MIC values (>80% reduction) FS1” value was found to be 0.6 µM. For the same substance, the “MIC values (>80% reduction) FS2” value against Fusarium solani 2 (FS2) turned out to be 0.6 µM. Also, in assay [1], the “MIC values (>80% reduction) CA” value is more than 40 µM. Also, the “MIC values (>80% reduction) AF” value in assay [2] is 10 µM. The “MIC values (>80% reduction) FS3” value in the assay with Fusarium solani 3 (FS3) is 1.25 µM. The “MIC values (>80% reduction) FS4” value against Fusarium solani 4 (FS4) came out at 2.5 µM.

Turning to “WRKWRKRWW (Artificial polypeptide designated MU 45) [MU_45, 87; monomer on which MU 4 is based]”, in the assay with fungi, the “antifungal activity (in words)” value is listed as “ineffective”. Besides, in the assay on Fusarium solani 1 (FS1), the “MIC values (>80% reduction) FS1” value was found to be 40 µM. In the assay with Fusarium solani 2 (FS2), the “MIC values (>80% reduction) FS2” value came to 40 µM. The “MIC values (>80% reduction) CA” value in assay [1] was more than 40 µM. For the same substance, the “MIC values (>80% reduction) AF” value in assay [2] is more than 40 µM. Besides, the “MIC values (>80% reduction) FS3” value in the assay on Fusarium solani 3 (FS3) is 40 µM. Further, in the assay with Fusarium solani 4 (FS4), the “MIC values (>80% reduction) FS4” value is more than 40 µM.

In the case of “WRWKKKWRKWRWKKKWRK (Artificial polypeptide designated MU 26) [MU_26, 89]”, the “antifungal activity (in words)” value in the assay with fungi is “reduced activity”. For the same substance, the “MIC values (>80% reduction) FS1” value against Fusarium solani 1 (FS1) worked out at 5 µM. In the assay on Fusarium solani 2 (FS2), the “MIC values (>80% reduction) FS2” value was found to be 5 µM. In addition, in assay [1], the “MIC values (>80% reduction) CA” value is more than 40 µM. Moreover, in assay [2], the “MIC values (>80% reduction) AF” value was more than 40 µM. Besides, in the assay on Fusarium solani 3 (FS3), the “MIC values (>80% reduction) FS3” value was determined as 5 µM. Besides, in the assay on Fusarium solani 4 (FS4), the “MIC values (>80% reduction) FS4” value amounted to 10 µM.

With “WRWRKRWRKWRWRKRWRK (Artificial polypeptide designated MU 27) [MU_27]”, the “antifungal activity (in words)” value in the assay on fungi is reported as “good antifungal activity”. Also, the “MIC values (>80% reduction) FS1” value in the assay with Fusarium solani 1 (FS1) worked out at 0.6 µM. Also, the “MIC values (>80% reduction) FS2” value against Fusarium solani 2 (FS2) is 0.6 µM. The “MIC values (>80% reduction) CA” value in assay [1] was found to be 20 µM. The “MIC values (>80% reduction) AF” value in assay [2] is 5 µM. Moreover, in the assay on Fusarium solani 3 (FS3), the “MIC values (>80% reduction) FS3” value amounted to 0.6 µM. In addition, in the assay with Fusarium solani 4 (FS4), the “MIC values (>80% reduction) FS4” value was determined as 1.25 µM.

“WRWRRRWRKWRWRRRWRK (Artificial polypeptide designated MU 25) [MU_25, 88]”: the “antifungal activity (in words)” value in the assay with fungi is recorded as “reduced activity”. Besides, the “MIC values (>80% reduction) FS1” value against Fusarium solani 1 (FS1) came to 5 µM. Also, the “MIC values (>80% reduction) FS2” value against Fusarium solani 2 (FS2) came to 5 µM. Besides, the “MIC values (>80% reduction) CA” value in assay [1] was more than 40 µM. In addition, the “MIC values (>80% reduction) AF” value in assay [2] turned out to be 10 µM. Moreover, the “MIC values (>80% reduction) FS3” value in the assay with Fusarium solani 3 (FS3) is 10 µM. Besides, the “MIC values (>80% reduction) FS4” value in the assay with Fusarium solani 4 (FS4) was 20 µM.

In the case of “YRKYRKRYYYRKYRKRYY (Artificial polypeptide designated GIN 41 or MU6) [MU_6]”, the “antifungal activity (in words)” value in the assay with fungi is on record as “particularly effective antifungal peptides”. For the same substance, the “MIC values (>80% reduction) FS1” value in the assay with Fusarium solani 1 (FS1) stood at 10 µM. Further, the “MIC values (>80% reduction) FS2” value in the assay with Fusarium solani 2 (FS2) was 5 µM. For the same substance, the “MIC values (>80% reduction) CA” value in assay [1] is more than 40 µM. In addition, in assay [2], the “MIC values (>80% reduction) AF” value was more than 40 µM. Also, the “MIC values (>80% reduction) FS3” value against Fusarium solani 3 (FS3) was found to be 5 µM. Further, in the assay with Fusarium solani 4 (FS4), the “MIC values (>80% reduction) FS4” value worked out at 20 µM.

For the substance “modified apoB3359-3367: SEQ ID No. 7; modified form of the apoB3359-3367 9-mer, sequence shown only in Table 1 drawing (LRTRKRGRK; not fully specified) [reference compound]”, the “antifungal activity (in words)” value with fungi is on record as “no detectable antifungal activity”.
